From BindingDB's records for doi:10.1016/j.ejmech.2020.113116 (University of Pisa, 2021)

What was measured:
[1] = Positive allosteric modulator activity at human CB2R expressed in CHO-K1 cell membrane assessed as CP55940 EC50 for [35S]GTPgammaS binding at 1 nM measured after 90 mins by liquid scintillation counting analysis (Rvb = 1.9 nM)
[2] = Positive allosteric modulator activity at human CB2R expressed in CHO-K1 cell membrane assessed as CP55940 EC50 for [35S]GTPgammaS binding at 100 nM measured after 90 mins by liquid scintillation counting analysis (Rvb = 1.9 nM)

| EC50 [1] [nM] | EC50 [2] [nM] | Structure (SMILES) |
| --- | --- | --- |
| 3.4 | 7 | Cc1c(Br)cn(Cc2ccccc2F)c(=O)c1NC(=O)C1CCCCCC1 |
| 2.6 | 2.4 | Cc1c(Br)cn(Cc2ccccc2Cl)c(=O)c1NC(=O)C1CCCCCC1 |
